Experimental data from patent US20050085556A1, “Detection of cholesterol ozonation products” (priority 2003, published 2005).
Entries after “also recorded” stand apart in the source; their conditions may differ.

What was measured:
[1] = molecular target: LDL (apoB-100) (Homo sapiens, UniProt P04114); test: Circular dichroism of LDL secondary structure; conditions: LDL 100 μg/ml with compound 10 μM, PBS pH 7.4, 37° C.; for random coil of LDL protein: normal LDL 27±2%; for α helical structure of LDL protein: normal LDL ~40±2%
Procedure: Circular dichroism. […] Spectra were recorded in the peptidic range (200-260 nm). To increase the signal-to-noise ratio, multiple spectra (three) were averaged for each measurement.

[2] = tested on: J774.1 macrophages; test: Lipid-loading assay (foam cell formation); format: cell-based, murine; conditions: LDL 100 μg/mL plus compound 20 μM, 72 h, oil red O stain
Procedure: Lipid-loading assay (foam cell formation). J774.1 macrophages were incubated in ATCC-recommended media containing 10% fetal bovine serum under a controlled atmosphere of 5 or 7% CO2 at 37° C., in 8-well chamber slides. […] At termination, cells were washed twice with PBS (pH 7.4). The cells were then fixed with 6% (v/v) paraformaldehyde in PBS for 30 minutes, rinsed with propylene glycol for 2 minutes and lipids were stained with 5 mg/ml Oil Red O for 8 minutes. The cells were counterstained with Harris' hematoxylin for 45 seconds, and background staining was removed with […] followed by washing once in PBS and once in tap water. Cover slips were mounted onto the glass slides using glycerol and the slide preparations were examined by light microscopy. The number of lipid-laden cells was scored out of a total of at least 100 cells counted in a single field in each slide, and expressed as a percentage of total cells. Photographs were taken at 100×magnification.

Sequence of LDL (apoB-100) (P04114 28-4563): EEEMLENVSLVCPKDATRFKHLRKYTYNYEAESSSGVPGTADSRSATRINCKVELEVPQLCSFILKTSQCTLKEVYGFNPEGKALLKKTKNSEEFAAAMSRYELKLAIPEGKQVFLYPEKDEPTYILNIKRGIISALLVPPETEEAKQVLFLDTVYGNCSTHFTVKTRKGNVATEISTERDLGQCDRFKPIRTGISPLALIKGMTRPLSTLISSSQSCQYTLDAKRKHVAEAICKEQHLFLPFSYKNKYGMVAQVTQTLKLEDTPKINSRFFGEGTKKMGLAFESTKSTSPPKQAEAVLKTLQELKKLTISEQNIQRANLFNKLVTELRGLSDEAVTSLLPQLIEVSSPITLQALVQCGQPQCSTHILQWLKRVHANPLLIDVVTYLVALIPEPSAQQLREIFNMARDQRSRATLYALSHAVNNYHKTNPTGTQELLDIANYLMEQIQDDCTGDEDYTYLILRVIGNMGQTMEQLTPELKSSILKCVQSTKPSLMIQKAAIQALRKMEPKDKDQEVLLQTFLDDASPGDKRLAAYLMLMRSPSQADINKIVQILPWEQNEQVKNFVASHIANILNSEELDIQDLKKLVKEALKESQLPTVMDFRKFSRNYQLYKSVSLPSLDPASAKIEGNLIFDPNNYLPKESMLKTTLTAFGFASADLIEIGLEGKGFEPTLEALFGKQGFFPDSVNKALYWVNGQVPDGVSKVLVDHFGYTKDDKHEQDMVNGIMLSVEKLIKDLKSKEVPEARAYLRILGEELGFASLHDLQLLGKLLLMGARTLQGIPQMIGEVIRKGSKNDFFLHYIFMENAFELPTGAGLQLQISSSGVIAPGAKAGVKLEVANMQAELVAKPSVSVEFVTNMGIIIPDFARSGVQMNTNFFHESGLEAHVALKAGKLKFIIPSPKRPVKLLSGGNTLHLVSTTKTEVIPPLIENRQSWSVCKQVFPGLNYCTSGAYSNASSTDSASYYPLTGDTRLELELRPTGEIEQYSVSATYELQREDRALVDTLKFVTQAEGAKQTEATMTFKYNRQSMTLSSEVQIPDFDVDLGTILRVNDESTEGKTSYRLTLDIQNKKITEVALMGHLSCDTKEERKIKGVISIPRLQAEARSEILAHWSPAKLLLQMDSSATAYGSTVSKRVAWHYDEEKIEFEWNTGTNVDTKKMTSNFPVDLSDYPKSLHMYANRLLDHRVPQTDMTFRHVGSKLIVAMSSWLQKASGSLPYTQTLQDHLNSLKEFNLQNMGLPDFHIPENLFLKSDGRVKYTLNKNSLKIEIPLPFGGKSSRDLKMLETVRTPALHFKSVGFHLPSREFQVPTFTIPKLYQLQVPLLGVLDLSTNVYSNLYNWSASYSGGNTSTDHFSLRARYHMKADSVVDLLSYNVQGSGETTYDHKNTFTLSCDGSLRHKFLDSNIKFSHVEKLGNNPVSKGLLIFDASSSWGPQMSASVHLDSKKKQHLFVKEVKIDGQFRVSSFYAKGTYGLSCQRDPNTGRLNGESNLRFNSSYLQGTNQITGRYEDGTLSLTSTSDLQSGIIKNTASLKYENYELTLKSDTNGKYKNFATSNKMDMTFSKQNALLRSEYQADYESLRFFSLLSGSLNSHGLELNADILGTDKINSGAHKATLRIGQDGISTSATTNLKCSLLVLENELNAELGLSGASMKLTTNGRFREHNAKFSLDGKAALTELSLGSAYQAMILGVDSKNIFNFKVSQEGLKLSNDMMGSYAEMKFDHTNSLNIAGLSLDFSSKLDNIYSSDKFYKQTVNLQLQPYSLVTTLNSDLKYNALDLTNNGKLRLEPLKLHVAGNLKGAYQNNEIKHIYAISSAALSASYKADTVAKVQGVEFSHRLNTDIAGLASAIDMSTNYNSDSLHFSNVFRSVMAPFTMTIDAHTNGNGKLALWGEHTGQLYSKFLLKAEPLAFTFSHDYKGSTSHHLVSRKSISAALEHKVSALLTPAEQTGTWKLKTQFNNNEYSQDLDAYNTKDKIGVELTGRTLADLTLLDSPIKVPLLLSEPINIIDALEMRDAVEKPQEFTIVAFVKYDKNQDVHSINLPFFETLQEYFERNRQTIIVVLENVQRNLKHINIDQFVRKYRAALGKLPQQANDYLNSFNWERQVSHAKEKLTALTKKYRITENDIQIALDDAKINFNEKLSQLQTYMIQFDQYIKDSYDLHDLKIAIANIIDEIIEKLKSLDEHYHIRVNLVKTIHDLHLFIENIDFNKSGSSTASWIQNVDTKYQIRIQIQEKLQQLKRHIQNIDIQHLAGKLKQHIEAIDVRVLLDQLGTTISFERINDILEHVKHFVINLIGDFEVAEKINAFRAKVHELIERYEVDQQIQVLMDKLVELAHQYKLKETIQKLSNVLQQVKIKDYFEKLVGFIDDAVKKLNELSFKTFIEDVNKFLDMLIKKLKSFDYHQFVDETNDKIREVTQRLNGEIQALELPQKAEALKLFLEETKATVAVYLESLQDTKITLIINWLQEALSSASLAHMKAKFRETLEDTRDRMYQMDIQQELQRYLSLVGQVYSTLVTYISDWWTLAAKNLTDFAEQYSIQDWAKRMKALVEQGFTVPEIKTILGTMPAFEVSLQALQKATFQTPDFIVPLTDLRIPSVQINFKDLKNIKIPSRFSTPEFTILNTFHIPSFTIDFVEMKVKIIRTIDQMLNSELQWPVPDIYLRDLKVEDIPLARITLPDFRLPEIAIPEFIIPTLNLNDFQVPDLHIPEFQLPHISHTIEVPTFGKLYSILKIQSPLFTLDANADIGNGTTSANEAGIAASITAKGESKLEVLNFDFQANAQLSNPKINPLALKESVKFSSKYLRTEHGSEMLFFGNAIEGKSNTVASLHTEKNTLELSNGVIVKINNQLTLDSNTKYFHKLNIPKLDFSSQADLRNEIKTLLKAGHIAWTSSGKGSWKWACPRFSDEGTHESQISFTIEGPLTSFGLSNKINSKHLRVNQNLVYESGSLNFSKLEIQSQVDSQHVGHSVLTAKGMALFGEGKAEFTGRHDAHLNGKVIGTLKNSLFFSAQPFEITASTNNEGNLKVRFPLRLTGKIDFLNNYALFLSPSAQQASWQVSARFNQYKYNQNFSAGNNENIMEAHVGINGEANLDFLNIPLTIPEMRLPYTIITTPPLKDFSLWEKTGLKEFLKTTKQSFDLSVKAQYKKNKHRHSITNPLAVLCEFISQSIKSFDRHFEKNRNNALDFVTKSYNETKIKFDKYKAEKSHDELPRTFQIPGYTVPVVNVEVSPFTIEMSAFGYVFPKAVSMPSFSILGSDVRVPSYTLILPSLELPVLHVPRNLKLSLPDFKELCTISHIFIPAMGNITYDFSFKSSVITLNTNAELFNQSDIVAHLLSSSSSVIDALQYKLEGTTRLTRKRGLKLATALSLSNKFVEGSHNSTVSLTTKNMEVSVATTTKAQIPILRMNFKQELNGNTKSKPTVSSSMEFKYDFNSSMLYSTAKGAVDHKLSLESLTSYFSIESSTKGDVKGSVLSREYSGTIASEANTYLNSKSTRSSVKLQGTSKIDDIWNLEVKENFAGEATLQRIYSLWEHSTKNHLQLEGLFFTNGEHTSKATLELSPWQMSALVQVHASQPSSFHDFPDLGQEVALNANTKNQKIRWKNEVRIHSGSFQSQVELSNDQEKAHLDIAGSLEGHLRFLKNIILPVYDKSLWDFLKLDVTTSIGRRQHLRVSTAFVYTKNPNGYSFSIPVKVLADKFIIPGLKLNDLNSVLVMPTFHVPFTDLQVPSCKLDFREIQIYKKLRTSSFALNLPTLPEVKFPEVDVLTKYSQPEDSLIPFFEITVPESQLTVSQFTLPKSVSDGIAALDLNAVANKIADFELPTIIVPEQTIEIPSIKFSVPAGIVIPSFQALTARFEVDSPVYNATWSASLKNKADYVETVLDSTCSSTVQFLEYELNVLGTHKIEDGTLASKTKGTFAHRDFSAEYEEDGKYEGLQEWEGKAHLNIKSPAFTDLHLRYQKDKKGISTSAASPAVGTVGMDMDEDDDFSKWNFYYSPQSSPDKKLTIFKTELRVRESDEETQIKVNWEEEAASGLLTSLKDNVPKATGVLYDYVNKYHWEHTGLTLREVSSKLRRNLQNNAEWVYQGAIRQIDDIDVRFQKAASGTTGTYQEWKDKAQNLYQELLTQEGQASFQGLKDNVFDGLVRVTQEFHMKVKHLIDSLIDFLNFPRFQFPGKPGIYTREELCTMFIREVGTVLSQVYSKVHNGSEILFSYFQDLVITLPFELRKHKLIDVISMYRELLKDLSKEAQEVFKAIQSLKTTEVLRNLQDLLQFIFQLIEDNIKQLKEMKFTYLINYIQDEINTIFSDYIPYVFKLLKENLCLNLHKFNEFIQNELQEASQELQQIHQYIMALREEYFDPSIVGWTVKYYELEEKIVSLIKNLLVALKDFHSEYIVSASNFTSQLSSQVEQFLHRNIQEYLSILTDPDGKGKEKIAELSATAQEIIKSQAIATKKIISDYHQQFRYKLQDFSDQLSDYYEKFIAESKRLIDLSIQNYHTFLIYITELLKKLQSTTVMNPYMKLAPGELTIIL

Structure (SMILES)	random coil of LDL protein [1] [%]	α helical structure of LDL protein [1] [%]	lipid-loading of macrophages (foam cell formation) [2]
CC(C)CCC[C@@H](C)[C@H]1CCC2C(CC=O)C([C@@]3(C)CC[C@H](O)CC3=O)CC[C@@]21C (stereo partly drawn) [4a, 3β-Hydroxy-5-oxo-5,6-secocholestan-6-al]	~39±2	~23±5	macrophages began lipid-loading and foam cells began to appear; also recorded: induces lipid-loading of macrophages to produce foam cells
CC(C)CCC[C@@H](C)[C@H]1CCC2C3C(CC[C@@]21C)[C@@]1(C)CC[C@H](O)C[C@@]1(O)[C@@H]3C=O (stereo partly drawn) [5a, 3β-Hydroxy-5β-hydroxy-B-norcholestane-6β-carboxaldehyde]	32±4	~20±2	macrophages began lipid-loading and foam cells began to appear; also recorded: effect of ozonolysis product 4a upon macrophages was indistinguishable from the effect of ozonolysis product 5a
